Results from the supplement of paper PMC10307832.

Legend:
Assay in all cases: relative viability (nuclei count vs DMSO), 5 days (fraction); higher = more cells survive
[1] = tested on: A549
Summary of the method: (§1)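 The day after seeding in 1536-well plates, lung cancer cell lines were treated by pin tool with a single drug, or with a fixed anchor-drug dose together with five library-drug doses (not always all listed) in √10 steps. After 5 days, a combined fix-and-stain solution (final 0.05% Triton X-100, 1% formaldehyde, 1 ug/ml Hoechst) was added. Nuclei counted on 4× images gave relative viability as treated counts over vehicle counts, reported as the median of duplicate plates.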

[2] = tested on: ABC-1
Summary of the method: as §1

[3] = tested on: COR-L23
Summary of the method: as §1

[4] = tested on: ChaGo-K-1
Summary of the method: as §1

[5] = tested on: NCI-H1437
Summary of the method: as §1

[6] = tested on: NCI-H1623
Summary of the method: as §1

[7] = tested on: NCI-H1651
Summary of the method: as §1

[8] = tested on: SK-MES-1
Summary of the method: as §1

[9] = tested on: SW 1573
Summary of the method: as §1

[10] = tested on: Calu-6
Summary of the method: as §1

[11] = tested on: EBC-1
Summary of the method: as §1

[12] = tested on: IA-LM
Summary of the method: as §1

[13] = tested on: NCI-H1299
Summary of the method: as §1

[14] = tested on: NCI-H1703
Summary of the method: as §1

Work on `CCN(CC)CCCCNc1ncc2cc(-c3cc(OC)cc(OC)c3)c(NC(=O)NC(C)(C)C)nc2n1` + N=C(N)NC(=N)NCCc1ccccc1 [Phenformin] (partner 250 µM) yielded a relative viability ([1]; first compound 0.01 µM) of 0.198, a relative viability ([1]; first compound 0.03162 µM) of 0.19 and a relative viability ([1]; first compound 0.1 µM) of 1.04. The relative viability ([1]; first compound 0.3162 µM) was 0.247, the relative viability ([1]; first compound 1 µM) was 0.12 and the relative viability ([2]; first compound 0.01 µM) was 0.24. For the same molecule, the relative viability ([2]; first compound 0.03162 µM) was 0.286, the relative viability ([2]; first compound 0.1 µM) was 0.256 and the relative viability ([2]; first compound 0.3162 µM) was 0.208. For the same molecule, the relative viability ([2]; first compound 1 µM) was 0.254, the relative viability ([3]; first compound 0.01 µM) was 0.433 and the relative viability ([3]; first compound 0.03162 µM) was 0.444. The relative viability ([3]; first compound 0.1 µM) was 0.511, the relative viability ([3]; first compound 0.3162 µM) was 0.517 and the relative viability ([3]; first compound 1 µM) was 0.362. For the same molecule, the relative viability ([4]; first compound 0.01 µM) was 0.541, the relative viability ([4]; first compound 0.03162 µM) was 0.45 and the relative viability ([4]; first compound 0.1 µM) was 0.585. The relative viability ([4]; first compound 0.3162 µM) was 0.47, the relative viability ([4]; first compound 1 µM) was 0.474 and the relative viability ([5]; first compound 0.01 µM) was 0.29. The relative viability ([5]; first compound 0.03162 µM) was 0.298, the relative viability ([5]; first compound 0.1 µM) was 0.28 and the relative viability ([5]; first compound 0.3162 µM) was 0.362. The relative viability ([5]; first compound 1 µM) was 0.257, the relative viability ([6]; first compound 0.01 µM) was 0.602 and the relative viability ([6]; first compound 0.03162 µM) was 0.49. It also gave a relative viability ([6]; first compound 0.1 µM) of 0.626, a relative viability ([6]; first compound 0.3162 µM) of 0.608 and a relative viability ([6]; first compound 1 µM) of 0.577. It also gave a relative viability ([7]; first compound 0.01 µM) of 0.305, a relative viability ([7]; first compound 0.03162 µM) of 0.383 and a relative viability ([7]; first compound 0.1 µM) of 0.347. It also gave a relative viability ([7]; first compound 0.3162 µM) of 0.316, a relative viability ([7]; first compound 1 µM) of 0.257 and a relative viability ([8]; first compound 0.01 µM) of 0.706. The relative viability ([8]; first compound 0.03162 µM) was 0.673, the relative viability ([8]; first compound 0.1 µM) was 0.637 and the relative viability ([8]; first compound 0.3162 µM) was 0.641. For the same molecule, the relative viability ([8]; first compound 1 µM) was 0.483, the relative viability ([9]; first compound 0.01 µM) was 0.351 and the relative viability ([9]; first compound 0.03162 µM) was 0.372. For the same molecule, the relative viability ([9]; first compound 0.1 µM) was 0.394, the relative viability ([9]; first compound 0.3162 µM) was 0.36 and the relative viability ([9]; first compound 1 µM) was 0.36.

With `CCN(CC)CCCCNc1ncc2cc(-c3cc(OC)cc(OC)c3)c(NC(=O)NC(C)(C)C)nc2n1` + COc1cc2c(Oc3ccc(NC(=O)C4(C(=O)Nc5ccc(F)cc5)CC4)cc3F)ccnc2cc1OCCCN1CCOCC1 [Foretinib] (partner 0.25 µM) the relative viability ([1]; first compound 0.01 µM) was 1.07, the relative viability ([1]; first compound 0.03162 µM) was 0.841 and the relative viability ([1]; first compound 0.1 µM) was 1.1. For the same molecule, the relative viability ([1]; first compound 0.3162 µM) was 1.17, the relative viability ([1]; first compound 1 µM) was 0.758 and the relative viability ([2]; first compound 0.01 µM) was 1.22. It also gave a relative viability ([2]; first compound 0.03162 µM) of 0.951, a relative viability ([2]; first compound 0.1 µM) of 1.3 and a relative viability ([2]; first compound 0.3162 µM) of 1.14. It also gave a relative viability ([2]; first compound 1 µM) of 1.16, a relative viability ([3]; first compound 0.01 µM) of 1.11 and a relative viability ([3]; first compound 0.03162 µM) of 0.981. For the same molecule, the relative viability ([3]; first compound 0.1 µM) was 1.14, the relative viability ([3]; first compound 0.3162 µM) was 1.04 and the relative viability ([3]; first compound 1 µM) was 1.05. It also gave a relative viability ([10]; first compound 0.01 µM) of 0.97, a relative viability ([10]; first compound 0.03162 µM) of 0.994 and a relative viability ([10]; first compound 0.1 µM) of 1.02. The relative viability ([10]; first compound 0.3162 µM) was 0.902, the relative viability ([10]; first compound 1 µM) was 0.86 and the relative viability ([4]; first compound 0.01 µM) was 0.903. For the same molecule, the relative viability ([4]; first compound 0.03162 µM) was 1.05, the relative viability ([4]; first compound 0.1 µM) was 0.936 and the relative viability ([4]; first compound 0.3162 µM) was 0.956. For the same molecule, the relative viability ([4]; first compound 1 µM) was 0.757, the relative viability ([11]; first compound 0.01 µM) was 0.103 and the relative viability ([11]; first compound 0.03162 µM) was 0.111. For the same molecule, the relative viability ([11]; first compound 0.1 µM) was 0.12, the relative viability ([11]; first compound 0.3162 µM) was 0.104 and the relative viability ([11]; first compound 1 µM) was 0.106. For the same molecule, the relative viability ([12]; first compound 0.01 µM) was 1.19, the relative viability ([12]; first compound 0.03162 µM) was 1.33 and the relative viability ([12]; first compound 0.1 µM) was 1.17. The relative viability ([12]; first compound 0.3162 µM) was 1.16, the relative viability ([12]; first compound 1 µM) was 1.23 and the relative viability ([13]; first compound 0.01 µM) was 1.12. The relative viability ([13]; first compound 0.03162 µM) was 1.1, the relative viability ([13]; first compound 0.1 µM) was 1.16 and the relative viability ([13]; first compound 0.3162 µM) was 1.08. It also gave a relative viability ([13]; first compound 1 µM) of 1.02, a relative viability ([5]; first compound 0.01 µM) of 1.47 and a relative viability ([5]; first compound 0.03162 µM) of 1.21. It also gave a relative viability ([5]; first compound 0.1 µM) of 1.3, a relative viability ([5]; first compound 0.3162 µM) of 1.3 and a relative viability ([5]; first compound 1 µM) of 1.16. The relative viability ([6]; first compound 0.01 µM) was 0.859, the relative viability ([6]; first compound 0.03162 µM) was 0.674 and the relative viability ([6]; first compound 0.1 µM) was 0.876. It also gave a relative viability ([6]; first compound 0.3162 µM) of 0.945, a relative viability ([6]; first compound 1 µM) of 0.874 and a relative viability ([7]; first compound 0.01 µM) of 0.789. It also gave a relative viability ([7]; first compound 0.03162 µM) of 0.949, a relative viability ([7]; first compound 0.1 µM) of 0.82 and a relative viability ([7]; first compound 0.3162 µM) of 0.761. The relative viability ([7]; first compound 1 µM) was 0.748, the relative viability ([14]; first compound 0.01 µM) was 0.314 and the relative viability ([14]; first compound 0.1 µM) was 0.388. It also gave a relative viability ([14]; first compound 0.3162 µM) of 0.308, a relative viability ([14]; first compound 1 µM) of 0.373 and a relative viability ([8]; first compound 0.01 µM) of 0.973. For the same molecule, the relative viability ([8]; first compound 0.03162 µM) was 1.17, the relative viability ([8]; first compound 0.1 µM) was 0.88 and the relative viability ([8]; first compound 0.3162 µM) was 1.12. The relative viability ([8]; first compound 1 µM) was 0.889, the relative viability ([9]; first compound 0.01 µM) was 0.928 and the relative viability ([9]; first compound 0.03162 µM) was 0.878. It also gave a relative viability ([9]; first compound 0.1 µM) of 0.924, a relative viability ([9]; first compound 0.3162 µM) of 0.896 and a relative viability ([9]; first compound 1 µM) of 0.814.
